Where two headings read alike, the source gives them in different places.
Experiments:
MM074 melanospheres [1] = assay: Melanosphere apoptosis (AnnexinV-APC / propidium iodide); type: cell-based, human; conditions: 72h
Experimental: (§1) MM074 proliferative/differentiated cell line were seeded (5×10^4 cells) in ultra-low attachment hydrogel-layered 96 well plates in KO DMEM medium supplemented with 20% KSR, AANE, 2 mM Glutamax, Penicillin/Streptomycin and 100 uM Beta-mercaptoethanol. To allow for melanosphere formation, cells were left to grow for 4 days before drug treatment.
For apoptosis assays with 3D-grown melanoma cells, TrypLe Select 10x reagent (Gibco) was used to dissociate melanospheres to obtain single-cell suspensions. These cells were incubated with AnnexinV-APC (Biolegend) and Propidium Iodide (PI, Biolegend). With bivariant dot plots, it was distinguished between viable (AnnexinV-/PI-), early apoptotic (AnnexinV+/PI-), late apoptotic (AnnexinV+/PI+) and necrotic cells (AnnexinV-/PI+).

[2] = tested on: 501mel, 501mel^VemuR and SKMEL28-derived xenografts; conditions: 24h after single IV dose of 1.2 mg/kg
From the text: To investigate the effects of the aforementioned tested drugs in living organisms, it was decided to examine the impact of PM14 and Compound IA on melanoma cell-derived xenograft (CDXs) mouse models. Human 501mel, 501mel^VemuR or SKMEL28 melanoma cells were subcutaneously implanted into the right flank of NSG mice.

501mel = assay: Cell viability assay (PrestoBlue), 72h; conditions: Homo sapiens
Experimental: (§7) Cells were grown at 37°C in 5% CO2 (10% for Hermes 3A) and were regularly checked for mycoplasma contamination. […] Melanoma cell lines 501mel and SKmel28 were grown in RPMI w/o HEPES (Gibco, Invitrogen) supplemented with 10% FCS and gentamycin. Vemurafenib-resistant cells (501melVemuR and MM074VemuR) were additionally supplemented with 1.5 µM of vemurafenib. Melanoma IGR cell lines (IGR37 and IGR39) were grown in RPMI w/o HEPES (Gibco, Invitrogen) supplemented with 15% FCS and gentamycin.
(§8) To determine the IC50 (half maximal inhibitory concentration) of these cells to various inhibitors, cell viability assays were performed.
(§9) After 72h of treatment with different concentrations of the compounds, cells were treated with PrestoBlue reagent according to the manufacturer's instructions. The absorbance per well was measured with a Cellinsight CX5 microplate reader. Data were analyzed using Prism9 statistical software.

melanoma cells 501mel = assay: Cell cycle analysis by flow cytometry (PI); type: cell-based, human; conditions: IC50 concentrations
Experimental: For cell cycle analysis, 2×10^6 cells were seeded in 6 well plates. […] After 2 washes with cold PBS, cells were incubated with RNAse A and PI for 1h in the dark, before being analyzed on a BD LSRFortessaTM Flow Cytometer. Data were analysed with FlowJo software.

MM047 = assay: Cell viability assay (PrestoBlue), 72h; conditions: Homo sapiens
Experimental: (§10) Cells were grown at 37°C in 5% CO2 (10% for Hermes 3A) and were regularly checked for mycoplasma contamination. […] Melanoma IGR cell lines (IGR37 and IGR39) were grown in RPMI w/o HEPES (Gibco, Invitrogen) supplemented with 15% FCS and gentamycin.
as §8, §9

MM011 = assay: Cell viability assay (PrestoBlue), 72h; conditions: Homo sapiens
Experimental: as §7, §8, §9

MM074 = assay: Cell viability assay (PrestoBlue), 72h; conditions: Homo sapiens
Experimental: as §7, §8, §9

[3] = tested on: WM-266-4 melanoma xenografts; conditions: 1.2 mg/kg intravenous
Experimental: (§2) Female athymic nu/nu mice (Harlan Laboratories Models, S.L. Barcelona, Spain or Envigo, Spain) were utilized for all experiments. Animal were housed in individually ventilated cages Sealsafe® Plus, Techmplast S.P.A.), up to ten per cage on a 12-hour light-dark cycle at 21-23 °C and 40-60 % humidity. Mice were allowed free access to irradiated standard rodent diet (Tecklad 2914C) and sterilized water. Animals were acclimated for at least 5 days prior to tumor implantation with a tumor cell suspension.
(§3) The cell line used are: • 501mel • IGR-37 • SK-Mel-28 • WM-266-4 • LOX-IMVI • 501mel^Vemur
(§4) In xenograft studies with cell lines: • Tumour volume was calculated using the equation […], where a: length (longest diameter) and b: width (shortest diameter) were measured in mm by using digital caliper (Fowler Sylvac, S235PAT). Tumour dimensions and body weights were recorded 2-3 times per week starting from the first day of treatment. • When tumors reached ca. 150-250 mm^3, tumour bearing animals (N = 8-10/group) were randomly allocated into the treatment groups, based on body weight and tumour measurements by using NewLab Oncology Software (version 2.25.06.00). • Comparison between median tumour volume of treated and placebo groups was used for evaluation of the antitumoural efficacy. • Animals were euthanized when their tumours reached ca. 1,500 mm^3 and/or severe necrosis was seen.
(§5) Treatments producing >20 % lethality and/or 20% net body weight loss were considered toxic.
(§6) In these experiments, PM14 and Compound IA, as well as placebo, were intravenously administered once per week for 3 consecutive weeks, on days 0, 7 and 14, whenever it was possible.
Table 7. Tumour volume evaluation in WM-266-4 melanoma xenografts with PM14 and Compound IA and placebo.

SKMEL-28 = assay: Cell viability assay (PrestoBlue), 72h; conditions: Homo sapiens, SK-MEL-28, 72 h
Experimental: as §7, §8, §9

MM117 = assay: Cell viability assay (PrestoBlue), 72h; conditions: Homo sapiens
Experimental: as §7, §8, §9

MM074 melanospheres [4] = assay: Melanosphere viability (CellTiterGlo); type: cell-based, human; conditions: 72h, doses equivalent to 5×IC50
Experimental: as §1
To analyze melanosphere viability after drug treatment, cells were treated with CellTiterGlo reagent (Promega) according to the manufacturer's instructions. Luminescence signals were measured with a Centro XS LB 960 microplate reader (Berthold).

IGR37 = assay: Cell viability assay (PrestoBlue), 72h; conditions: Homo sapiens, IGR-37, 72 h
Experimental: as §7, §8, §9

Hermes3A = assay: Cell viability assay (PrestoBlue), 72h; conditions: for sensitivity of non-cancerous Hermes3A immortalized melanocytes compared with the melanoma cells: Hermes3A versus melanoma cells; for IC50: Homo sapiens, Melanocyte, 72 h
Experimental: as §10, §8, §9

[5] = tested on: Sk-mel-28 melanoma xenografts; conditions: 1.2 mg/kg intravenous
Experimental: as §2, §3, §4, §5, §6
Table 6. Tumour volume evaluation in Sk-mel-28 melanoma xenografts with PM14 and Compound IA and placebo.

all melanoma cells = assay: Cell viability assay (PrestoBlue), summary over all melanoma cells; type: cell-based; conditions: Homo sapiens, read-out: IC50 values

COc1c(C)cc2c(c1O)[C@@H]1[C@@H]3[C@@H]4SC[C@]5(N[C@H](CO)Cc6c5oc5ccccc65)C(=O)OC[C@@H](c5c6c(c(C)c(OC(C)=O)c54)OCO6)N3[C@@H](O)[C@H](C2)N1C [Compound IA]
late apoptotic cells positive for Annexin V and propidium iodide (MM074 melanospheres [1]): substantial population of late apoptotic cells | fraction of apoptotic cells (cleaved caspase-3) [2]: significant increase | IC50 (501mel): 1.74 nM | cell cycle progression (melanoma cells 501mel): notable blockade | IC50 (MM047): 1.38 nM | IC50 (MM011): 1.44 nM | IC50 (MM074): 3.81 nM | Median Tumour Volume ([3]; days 0, 7 and 14, day 0): 169.5 mm^3 | Median Tumour Volume ([3]; days 0, 7 and 14, day 3): 109.8 mm^3 | Median Tumour Volume ([3]; days 0, 7 and 14, day 5): 100 mm^3 | Median Tumour Volume ([3]; days 0, 7 and 14, day 7): 104.4 mm^3 | Median Tumour Volume ([3]; days 0, 7 and 14, day 10): 97.8 mm^3 | Median Tumour Volume ([3]; days 0, 7 and 14, day 12): 89.2 mm^3 | Median Tumour Volume ([3]; days 0, 7 and 14, day 14): 94.9 mm^3 | Median Tumour Volume ([3]; days 0, 7 and 14, day 17): 68.8 mm^3 | Median Tumour Volume ([3]; days 0, 7 and 14, day 19): 75.7 mm^3 | Median Tumour Volume ([3]; days 0, 7 and 14, day 21): 95.2 mm^3 | Median Tumour Volume ([3]; days 0, 7 and 14, day 24): 75.7 mm^3 | Median Tumour Volume ([3]; days 0, 7 and 14, day 26): 96.7 mm^3 | Median Tumour Volume ([3]; days 0, 7 and 14, day 28): 99.4 mm^3 | Median Tumour Volume ([3]; days 0, 7 and 14, day 34): 134.3 mm^3 | Median Tumour Volume ([3]; days 0, 7 and 14, day 41): 275.2 mm^3 | Median Tumour Volume ([3]; days 0, 7 and 14, day 45): 312.1 mm^3 | Median Tumour Volume ([3]; days 0, 7 and 14, day 48): 461.7 mm^3 | Median Tumour Volume ([3]; days 0, 7 and 14, day 55): 749.7 mm^3 | Median Tumour Volume ([3]; days 0, 7 and 14, day 62): 985.3 mm^3 | Median Tumour Volume ([3]; days 0, 7 and 14, day 69): 1,145.3 mm^3 | IC50 (SKMEL-28): 1.74 nM | IC50 (MM117): 1.16 nM | cell viability in 3D culture (MM074 melanospheres [4]): significant cytotoxic effects | IC50 (IGR37): 1.48 nM | sensitivity of non-cancerous Hermes3A immortalized melanocytes compared with the melanoma cells (Hermes3A): less sensitive | IC50 (Hermes3A): 4.93 nM | Median Tumour Volume ([5]; days 0, 7 and 14, day 0): 152.3 mm^3 | Median Tumour Volume ([5]; days 0, 7 and 14, day 2): 179.8 mm^3 | Median Tumour Volume ([5]; days 0, 7 and 14, day 4): 232.7 mm^3 | Median Tumour Volume ([5]; days 0, 7 and 14, day 7): 302 mm^3 | Median Tumour Volume ([5]; days 0, 7 and 14, day 9): 397.8 mm^3 | Median Tumour Volume ([5]; days 0, 7 and 14, day 11): 476.6 mm^3 | Median Tumour Volume ([5]; days 0, 7 and 14, day 14): 551.1 mm^3 | Median Tumour Volume ([5]; days 0, 7 and 14, day 16): 585.8 mm^3 | Median Tumour Volume ([5]; days 0, 7 and 14, day 18): 676.6 mm^3 | Median Tumour Volume ([5]; days 0, 7 and 14, day 21): 748.7 mm^3 | Median Tumour Volume ([5]; days 0, 7 and 14, day 23): 866.2 mm^3 | Median Tumour Volume ([5]; days 0, 7 and 14, day 25): 906.6 mm^3 | Median Tumour Volume ([5]; days 0, 7 and 14, day 28): 1,203.1 mm^3 | Median Tumour Volume ([5]; days 0, 7 and 14, day 32): 1,331.3 mm^3 | Median Tumour Volume ([5]; days 0, 7 and 14, day 35): 1,593.1 mm^3 | IC50 (all melanoma cells): 0.3 to 4.73 nM

COc1c(C)cc2c(c1O)[C@@H]1[C@@H]3[C@@H]4SC[C@]5(N[C@H](CO)Cc6c5[nH]c5ccccc65)C(=O)OC[C@@H](c5c6c(c(C)c(OC(C)=O)c54)OCO6)N3[C@@H](O)[C@H](C2)N1C [PM14, ecubectedin]
late apoptotic cells positive for Annexin V and propidium iodide (MM074 melanospheres [1]): substantial population of late apoptotic cells | fraction of apoptotic cells (cleaved caspase-3) [2]: significant increase | IC50 (501mel): 1.25 nM | cell cycle progression (melanoma cells 501mel): notable blockade | IC50 (MM047): 0.96 nM | IC50 (MM011): 1.07 nM | IC50 (MM074): 1.15 nM | Median Tumour Volume ([3]; days 0, 7 and 14, day 0): 169.5 mm^3 | Median Tumour Volume ([3]; days 0, 7 and 14, day 3): 115.1 mm^3 | Median Tumour Volume ([3]; days 0, 7 and 14, day 5): 118.2 mm^3 | Median Tumour Volume ([3]; days 0, 7 and 14, day 7): 136.6 mm^3 | Median Tumour Volume ([3]; days 0, 7 and 14, day 10): 133.1 mm^3 | Median Tumour Volume ([3]; days 0, 7 and 14, day 12): 109.8 mm^3 | Median Tumour Volume ([3]; days 0, 7 and 14, day 14): 138.4 mm^3 | Median Tumour Volume ([3]; days 0, 7 and 14, day 17): 129.6 mm^3 | Median Tumour Volume ([3]; days 0, 7 and 14, day 19): 119.2 mm^3 | Median Tumour Volume ([3]; days 0, 7 and 14, day 21): 150.4 mm^3 | Median Tumour Volume ([3]; days 0, 7 and 14, day 24): 137.2 mm^3 | Median Tumour Volume ([3]; days 0, 7 and 14, day 26): 146.9 mm^3 | Median Tumour Volume ([3]; days 0, 7 and 14, day 28): 197.6 mm^3 | Median Tumour Volume ([3]; days 0, 7 and 14, day 34): 388.1 mm^3 | Median Tumour Volume ([3]; days 0, 7 and 14, day 41): 727.7 mm^3 | Median Tumour Volume ([3]; days 0, 7 and 14, day 45): 1,111.6 mm^3 | Median Tumour Volume ([3]; days 0, 7 and 14, day 48): 1,503.6 mm^3 | IC50 (SKMEL-28): 1.31 nM | IC50 (MM117): 0.72 nM | cell viability in 3D culture (MM074 melanospheres [4]): significant cytotoxic effects | IC50 (IGR37): 1.05 nM | sensitivity of non-cancerous Hermes3A immortalized melanocytes compared with the melanoma cells (Hermes3A): less sensitive | IC50 (Hermes3A): 2.89 nM | Median Tumour Volume ([5]; days 0, 7 and 14, day 0): 152.8 mm^3 | Median Tumour Volume ([5]; days 0, 7 and 14, day 2): 184.4 mm^3 | Median Tumour Volume ([5]; days 0, 7 and 14, day 4): 235.4 mm^3 | Median Tumour Volume ([5]; days 0, 7 and 14, day 7): 326.2 mm^3 | Median Tumour Volume ([5]; days 0, 7 and 14, day 9): 401.5 mm^3 | Median Tumour Volume ([5]; days 0, 7 and 14, day 11): 510.6 mm^3 | Median Tumour Volume ([5]; days 0, 7 and 14, day 14): 632.6 mm^3 | Median Tumour Volume ([5]; days 0, 7 and 14, day 16): 671.9 mm^3 | Median Tumour Volume ([5]; days 0, 7 and 14, day 18): 822.8 mm^3 | Median Tumour Volume ([5]; days 0, 7 and 14, day 21): 884.4 mm^3 | Median Tumour Volume ([5]; days 0, 7 and 14, day 23): 1,012.5 mm^3 | Median Tumour Volume ([5]; days 0, 7 and 14, day 25): 1,204.2 mm^3 | Median Tumour Volume ([5]; days 0, 7 and 14, day 28): 1,516.7 mm^3 | IC50 (all melanoma cells): 0.3 to 4.73 nM
